Results published in patent publication US7595401B2, “Therapeutic compounds and their use in cancer” (Myriad Pharmaceuticals, Inc., priority 2006, dated 2009).

system: purified human Hsp90; experiment: Binding Assay: fluorescence polarization with BODIPY-labeled geldanamycin; settings: 5 μM compound, BODIPY-GM 10 nM, Hsp90 30 nM
In short: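 Fluorescence polarization competition with BODIPY-geldanamycin (10 nM final) and human Hsp90 (30 nM final) in HEPES-KOH pH 7.3 buffer with molybdate, NP-40, DTT; 2% DMSO, overnight at room temperature. Read 485/530 nm; percent inhibition from mP normalized to DMSO controls, fluorescent-compound points excluded.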

Row | SMILES | % Inhibition at 5 μM Compound Concentration
1 | Nc1ncn(CCc2ccc(O)cc2)c2nc(Sc3cc4c(cc3Br)OCO4)nc1-2 [Example 301, 4-(2-{6-Amino-8-[(6-bromo-1,3-benzodioxol-5-yl)thio]-3H-purin-3-yl}ethyl)phenol] | 5.0%
2 | COc1ccc(OC)c(Sc2nc3c(N)ncn(CCc4ccc(N(C)C)cc4)c-3n2)c1 [Example 186, 8-(2,5-dimethoxy-phenylsulfanyl)-3-[2-(4-dimethylamino-phenyl)-ethyl]-3H-purin-6-ylamine] | 0%
3 | COc1ccc(F)cc1Sc1nc2c(N)ncn(CCc3ccccc3Cl)c-2n1 [Example 317, 3-[2-(2-Chlorophenyl)ethyl]-8-[(5-fluoro-2-methoxyphenyl)thio]-3H-purin-6-amine] | 0.0%
4 | COc1ccc(OC)c(Sc2nc3c(N)ncn(CCC4CCNCC4)c-3n2)c1 [Example 467, 8-[(2,5-Dimethoxyphenyl)thio]-3-(2-piperidin-4-ylethyl)-3 H-purin-6-amine] | 0%
5 | CC(C)(C)NC(=O)N1CCCC(CCn2cnc(N)c3nc(Sc4cc5c(cc4Br)OCO5)nc2-3)C1 (stereo not drawn) [Example 442, 3-(2-{6-Amino-8-[(6-bromo-1,3-benzodioxol-5-yl)thio]-3H-purin-3-yl}ethyl)-N-(tert-butyl)piperidine-1-carboxamide] | 4%
6 | Nc1ncn(CCc2cccc(I)c2)c2nc(Sc3cc4c(cc3Br)OCO4)nc1-2 [Example 154, 8-(6-Bromo-benzo[1,3]dioxol-5-ylsulfanyl)-3-[2-(3-iodo-phenyl)-ethyl]-3H-purin-6-ylamine] | >10%
7 | COc1ccc(OC)c(Sc2nc3c(N)ncnc3n2Cc2ccc([N+](=O)[O-])cc2)c1 [Example 84, 8-(2,5-Dimethoxy-phenylsulfanyl)-9-(4-nitro-benzyl)-9H-purin-6-ylamine] | 0%
8 | CC(C)NC(=O)N1CCC(CCn2cnc(N)c3nc(Sc4cc5c(cc4Br)OCO5)nc2-3)CC1 [Example 439, 4-(2-{6-Amino-8-[(6-bromo-1,3-benzodioxol-5-yl)thio]-3H-purin-3-yl}ethyl)-N-isopropylpiperidine-1-carboxamide] | 24%
9 | COc1ccc(OC)c(Sc2nc3c(N)ncnc3n2CCn2cccc2)c1 [Example 65, 8-(2,5-Dimethoxy-phenylsulfanyl)-9-(2-pyrrol-1-yl-ethyl)-9H-purin-6-ylamine] | 61%
10 | COc1ccc(OC)c(Sc2nc3c(N)ncn(CCC4CCOCC4)c-3n2)c1 [Example 349, 8-[(2,5-Dimethoxyphenyl)thio]-3-[2-(tetrahydro-2H-pyran-4-yl)ethyl]-3H-purin-6-amine] | 12%
11 | COc1ccc(OC)c(Sc2nc3c(N)ncnc3n2CCC2(F)C(F)(F)C(F)(F)C(F)(F)C(F)(F)C2(F)F)c1 [Example 245, 8-[(2,5-Dimethoxyphenyl)thio]-9-[2-(undecafluorocyclohexyl)ethyl]-9H-purin-6-amine] | 1%
12 | COc1ccc(OC)c(Sc2nc3c(N)ncn(Cc4ccc(F)cc4)c-3n2)c1 [Example 83, 8-(2,5-Dimethoxy-phenylsulfanyl)-3-(4-fluoro-benzyl)-3H-purin-6-ylamine] | 0%

same assay, conditions: BODIPY-GM 10 nM, Hsp90 30 nM

Row | SMILES | IC50
13 | CCOP(=O)(OCC)N1CCC(CCn2c(Sc3cc4c(cc3Br)OCO4)nc3c(N)ncnc32)CC1 [Example 644, Diethyl [4-(2-{6-amino-8-[(6-bromo-1,3-benzodioxol-5-yl)thio]-9 H-purin-9-yl}ethyl)piperidin-1-yl]phosphonate] | 200 nM
14 | Nc1ncnc2c1nc(Sc1cc3c(cc1Br)OCO3)n2CC[C@H]1CC[C@@H](N)CC1 [Example 481, 9-[2-(cis-4-Aminocyclohexyl)ethyl] 8-[(6-bromo-1,3-benzodioxol-5-yl)thio]-9 H-purin-6-amine] | 50 nM
15 | Nc1ncnc2c1nc(Sc1cc3c(cc1Br)OCO3)n2CC=C1CCNCC1 [Example 471, 8-[(6-Bromo-1,3-benzodioxol-5-yl)thio]-9-(2-piperidin-4-ylideneethyl)-9 H-purin-6-amine] | 600 nM
16 | Nc1ncnc2c1nc(Cc1cc3c(cc1Br)OCO3)n2CCc1ccccc1 [Example 209, 8-(6-Bromo-benzo[1,3]dioxol-5-ylmethyl)-9-phenethyl-9H-purin-6-ylamine] | 450 nM
17 | CC(C)(C)NC(=O)N1CCC(CCn2c(Sc3cc4c(cc3Br)OCO4)nc3c(N)ncnc32)CC1 [Example 433, 4-(2-{6-Amino-8-[(6-bromo-1,3-benzodioxol-5-yl)thio]-9H-purin-9-yl}ethyl)-N-(tert-butyl)piperidine-1-carboxamide] | 125 nM
18 | COc1ccc(OC)c(Sc2nc3c(N)ncnc3n2CCc2ccccc2)c1 [Example 1, 8-(2,5-Dimethoxy-phenylsulfanyl)-9-phenethyl-9H-purin-6-ylamine] | 340 nM
19 | Nc1ncnc2c1nc(Sc1cc3c(cc1Br)OCO3)n2CC1CCNCC1 [Example 648, 8-[(6-bromo-1,3-benzodioxol-5-yl)thio]-9-(piperidin-4-ylmethyl)-9H-purin-6-amine] | 684 nM
20 | Nc1ncnc2c1nc(Sc1cc3c(cc1Br)OCO3)n2CCC1CC2CCC(C1)O2 (stereo not drawn) [Example 605] | 56 nM
21 | CN1CCCC1CCn1c(Sc2cc3c(cc2Br)OCO3)nc2c(N)ncnc21 (stereo not drawn) [Example 355, 8-[(6-Bromo-1,3-benzodioxol-5-yl)thio]-9-[2-(1-methylpyrrolidin-2-yl)ethyl]-9H-purin-6-amine] | > 25000 nM
22 | COc1ccc(OC)c(Sc2nc3c(N)ncnc3n2Cc2ccc([N+](=O)[O-])cc2)c1 [Example 84, 8-(2,5-Dimethoxy-phenylsulfanyl)-9-(4-nitro-benzyl)-9H-purin-6-ylamine] | > 5000 nM
23 | COc1ccc(OC)c(Sc2nc3c(N)ncnc3n2CCc2ccccn2)c1 [Example 135, 8-(2,5-Dimethoxy-phenylsulfanyl)-9-(2-pyridin-2-yl-ethyl)-9H-purin-6-ylamine] | 1300 nM
24 | COc1ccc(OC)c(Sc2nc3c(N)ncn(CC4(c5ccc(Cl)cc5)CCC4)c-3n2)c1 [Example 62, 3-[1-(4-chloro-phenyl)-cyclobutylmethyl]-8-(2,5-dimethoxy-phenylsulfanyl)-3H-purin-6-ylamine] | > 10000 nM
25 | CC(C)NC(=O)N1CCC(CCn2c(Sc3cc4c(cc3Br)OCO4)nc3c(N)ncnc32)CC1 [Example 432, 4-(2-{6-Amino-8-[(6-bromo-1,3-benzodioxol-5-yl)thio]-9H-purin-9-yl}ethyl)-N-isopropylpiperidine-1-carboxamide] | 65 nM
26 | Nc1ncnc2c1nc(Sc1cc3c(cc1Br)OCO3)n2CCC1CCN(CC(F)(F)F)CC1 [Example 585, 8-[(6-Bromo-1,3-benzodioxol-5-yl)thio]-9-{2-[1-(2,2,2-trifluoroethyl)piperidin-4-yl]ethyl}-9 H-purin-6-amine] | 600 nM
27 | Nc1ncnc2c1nc(Sc1cc3c(cc1Br)OCO3)n2CCc1cccc(I)c1 [Example 153, 8-(6-Bromo-benzo[1,3]dioxol-5-ylsulfanyl)-9-[2-(3-iodo-phenyl)-ethyl]-9H-purin-6-ylamine] | 600 nM
28 | CCn1nnnc1N1CCC(CCn2c(Sc3cc4c(cc3Br)OCO4)nc3c(N)ncnc32)CC1 [Example 610, 8-[(6-Bromo-1,3-benzodioxol-5-yl)thio]-9-{2-[1-(1-ethyl-1 H-tetrazol-5-yl)piperidin-4-yl]ethyl}-9 H-purin-6-amine] | 88 nM
29 | C[C@@H](N)C(=O)N1CCCC(CCn2c(Sc3cc4c(cc3Br)OCO4)nc3c(N)ncnc32)C1 (stereo partly drawn) [Example 743, 9-(2-{1-[(2R)-2-Aminopropanoyl]piperidin-3-yl}ethyl)-8-[(6-bromo-1,3-benzodioxol-5-yl)thio]-9H-purin-6-amine] | 40 nM
30 | Nc1ncnc2c1nc(Sc1cc3c(cc1Br)OCO3)n2CCn1ccnc1 [Example 381, 8-[(6-Bromo-1,3-benzodioxol-5-yl)thio]-9-[2-(1H-imidazol-1-yl)ethyl]-9H-purin-6-amine] | 390 nM
31 | Nc1ncnc2c1nc(Sc1cc3c(cc1Br)OCO3)n2CCC1CCCCN1CC1CCCCC1 (stereo not drawn) [Example 588, 8-[(6-Bromo-1,3-benzodioxol-5-yl)thio]-9-{2-[1-(cyclohexylmethyl)piperidin-2-yl]ethyl}-9 H-purin-6-amine] | > 2000 nM
32 | COc1ccc(OC)c(Sc2nc3c(N)ncnc3n2CCc2ccc(NC(=O)OC(C)(C)C)cc2)c1 [Example 214, (4-{2-[6-Amino-8-(2,5-dimethoxy-phenylsulfanyl)-purin-9-yl]-ethyl}-phenyl)-carbamic acid tert-butyl ester] | 950 nM
33 | COc1ccc(OC)c(Sc2nc3c(N)ncnc3n2CCn2cccc2)c1 [Example 65, 8-(2,5-Dimethoxy-phenylsulfanyl)-9-(2-pyrrol-1-yl-ethyl)-9H-purin-6-ylamine] | 500 nM
34 | CC1CC1C(=O)N1CCC(CCn2c(Sc3cc4c(cc3Br)OCO4)nc3c(N)ncnc32)CC1 (stereo not drawn) [Example 518, 8-[(6-Bromo-1,3-benzodioxol-5-yl)thio]-9-(2-{1-[(2-methylcyclopropyl)carbonyl]piperidin-4-yl}ethyl)-9 H-purin-6-amine] | 140 nM
35 | Nc1ncnc2c1nc(Sc1cc3c(cc1Br)OCO3)n2CCC(N)C1CCSCC1 (stereo not drawn) [Example 689, 9-[3-Amino-3-(tetrahydro-2H-thiopyran-4-yl)propyl]-8-[(6-bromo-1,3-benzodioxol-5-yl)thio]-9H-purin-6-amine] | 120 nM
36 | CC(C)(C)OC(=O)N1CCC(Cn2c(Sc3cc4c(cc3Br)OCO4)nc3c(N)ncnc32)CC1 [Example 639, tert-Butyl 4-({6-amino-8-[(6-bromo-1,3-benzodioxol-5-yl)thio]-9 H-purin-9-yl}methyl)piperidine-1-carboxylate] | 900 nM
37 | Nc1ncnc2c1nc(Sc1cc3c(cc1Br)OCO3)n2CCC1CCN(C=O)CC1 [Example 363, 4-(2-{6-Amino-8-[(6-bromo-1,3-benzodioxol-5-yl)thio]-9H-purin-9-yl}ethyl)piperidine-1-carbaldehyde] | 300 nM
38 | COc1ccc(OC)c(Sc2nc3c(N)ncnc3n2CCc2ccc(Cl)cc2F)c1 [Example 97, 9-[2-(4-Chloro-2-fluoro-phenyl)-ethyl]-8-(2,5-dimethoxy-phenylsulfanyl)-9H-purin-6-ylamine] | 450 nM
39 | Nc1ncnc2c1nc(Sc1ccc3c(c1)OCO3)n2CCc1ccc(F)cc1 [Example 11, 8-(Benzo[1,3]dioxol-5-ylsulfanyl)-9-[2-(4-fluoro-phenyl)-ethyl]-9H-purin-6-ylamine] | 600 nM
